According to the supplement of paper PMC10307832:

Key:
Experiment in all cases: relative viability (nuclei count vs DMSO), 5 days (fraction); higher = more cells survive
[1] = compound: CC1=CC(=CC=C1)NC2=NC(=CS2)C3=CC=NC=C3 + CC(=O)Nc1cccc(-n2c(=O)n(C3CC3)c(=O)c3c(Nc4ccc(I)cc4F)n(C)c(=O)c(C)c32)c1 [Trametinib] (partner 0.02 µM)
Method in brief: (§1)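 Lung cancer cell lines, seeded in 1536-well plates, were treated the following day by pin tool with a single drug or with five library-drug doses (not always all listed) in √10 steps on top of a fixed anchor-drug dose. Cells were fixed and nuclei stained in one step after 5 days, and nuclei were counted. Relative viability is the nuclei count for treated wells divided by that for vehicle wells, reported as medians of duplicate plates.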

[2] = compound: CC1=CC(=CC=C1)NC2=NC(=CS2)C3=CC=NC=C3 + CCNC(=O)c1noc(-c2cc(C(C)C)c(O)cc2O)c1-c1ccc(CN2CCOCC2)cc1 [Luminespib] (partner 0.01 µM)
Method in brief: as §1

Masitinib + Pictilisib = compound: Cc1ccc(NC(=O)c2ccc(CN3CCN(C)CC3)cc2)cc1Nc1nc(-c2cccnc2)cs1 [Masitinib] + CS(=O)(=O)N1CCN(Cc2cc3nc(-c4cccc5[nH]ncc45)nc(N4CCOCC4)c3s2)CC1 [Pictilisib] (partner 1 µM)
Method in brief: as §1

Masitinib + Olaparib = compound: Cc1ccc(NC(=O)c2ccc(CN3CCN(C)CC3)cc2)cc1Nc1nc(-c2cccnc2)cs1 [Masitinib] + O=C(c1cc(Cc2n[nH]c(=O)c3ccccc23)ccc1F)N1CCN(C(=O)C2CC2)CC1 [Olaparib] (partner 8 µM)
Method in brief: as §1

Cell Line	relative viability ([1]; first compound 0.08 µM)	relative viability ([1]; first compound 0.253 µM)	relative viability ([1]; first compound 0.8 µM)	relative viability ([1]; first compound 2.53 µM)	relative viability ([1]; first compound 8 µM)	relative viability ([2]; first compound 0.08 µM)	relative viability ([2]; first compound 0.253 µM)	relative viability ([2]; first compound 0.8 µM)	relative viability ([2]; first compound 2.53 µM)	relative viability ([2]; first compound 8 µM)	relative viability (Masitinib + Pictilisib; first compound 0.01 µM)	relative viability (Masitinib + Pictilisib; first compound 0.03162 µM)	relative viability (Masitinib + Pictilisib; first compound 0.1 µM)	relative viability (Masitinib + Pictilisib; first compound 0.3162 µM)	relative viability (Masitinib + Pictilisib; first compound 1 µM)	relative viability (Masitinib + Olaparib; first compound 0.01 µM)	relative viability (Masitinib + Olaparib; first compound 0.03162 µM)	relative viability (Masitinib + Olaparib; first compound 0.1 µM)	relative viability (Masitinib + Olaparib; first compound 0.3162 µM)	relative viability (Masitinib + Olaparib; first compound 1 µM)
NCI-H322M	0.482	0.534	0.509	0.552	0.52	0.76	0.893	0.924	0.961	0.982	0.545	0.463	0.481	0.503	0.483	0.733	0.726	0.857	0.729	0.128
NCI-H358	0.121	0.141	0.133	0.142	0.136	0.286	0.605	0.305	0.436	0.231	0.328	0.319	0.34	0.394	0.296	0.549	0.621	0.603	0.604	0.607
NCI-H441	0.363	0.418	0.623	0.348	0.349	0.411	0.328	0.411	0.391	0.384	0.654	0.449	0.601	0.482	0.446	0.53	0.403	0.602	0.586	0.553
NCI-H460	0.0961	0.0855	0.0743	0.0913	0.111	0.0315	0.0322	0.04	0.0298	0.0349	0.587	0.26	0.415	0.254	0.321	0.38	0.381	0.436	0.463	0.415
NCI-H520	0.592	0.671	0.757	0.707	0.716	0.223	0.201	0.252	0.206	0.241	0.336		0.366	0.313	0.271	0.305	0.409	0.362	0.332	0.277
NCI-H596	0.731	0.761	0.575	0.642	0.586	0.938	0.959	0.809	0.911	0.814	0.214	0.345	0.438	0.385	0.35	0.593	0.657	0.634	0.581	0.633
NCI-H647	0.408	0.379	0.387	0.424	0.279	0.114	0.162	0.177	0.313	0.338	0.424	0.356	0.44	0.333	0.321	0.572	0.408	0.789	0.596	0.642
NCI-H650	0.837	1.07	1.04	0.956	0.964	0.866	0.803	0.929	0.687	0.893	0.921	0.909	1.09	0.864	0.929	0.41	0.386	0.422	0.394	0.324
NCI-H661	0.478	0.583	0.579	0.54	0.48	0.887	0.963	0.885	0.887	0.863	0.439	0.356	0.511	0.371	0.346	0.722	0.779	0.802	0.731	0.711
NCI-H727	0.422		0.439		0.405		0.373	0.378	0.374	0.402	0.506	0.416	0.443	0.317	0.317	0.76	0.774	0.686	0.819	0.676
NCI-H838	0.446	0.458	0.443	0.372	0.407	0.38	0.318	0.324	0.316	0.25	0.477	0.387	0.512	0.396	0.432	0.835	0.739	0.83	0.638	0.832
NCI-H1355	0.388	0.298	0.275	0.294	0.269	0.64	0.583	0.375	0.477	0.502	0.454	0.264	0.418	0.331	0.441	0.727	0.665	0.754	0.521	0.761
NCI-H1395	0.939		0.964	0.724	0.898	0.597	0.72	0.688	0.643	0.524	0.695	0.577	0.645	0.565	0.58	0.473	0.465	0.471	0.422	0.432
NCI-H1437	0.439	0.48	0.434	0.274	0.313	1.18	1.17	1.1	1.13	0.98	0.432	0.421	0.403	0.421	0.382	0.623	0.603	0.668	0.616	0.61
NCI-H1650	0.52	0.319	0.555	0.429	0.333	0.214	0.181	0.222	0.194	0.186	0.53	0.501	0.583	0.548	0.535	0.675	0.711	0.751	0.614	0.884
NCI-H1651	0.825	0.795	0.755	0.82	0.794	1.16	0.893	0.875	0.706	0.74	0.529	0.585	0.543	0.622	0.505	0.155	0.216	0.177	0.181	0.169

Cell Line	relative viability ([1]; first compound 0.08 µM)	relative viability ([1]; first compound 0.253 µM)	relative viability ([1]; first compound 0.8 µM)	relative viability ([1]; first compound 2.53 µM)	relative viability ([1]; first compound 8 µM)	relative viability ([2]; first compound 0.08 µM)	relative viability ([2]; first compound 0.253 µM)	relative viability ([2]; first compound 0.8 µM)	relative viability ([2]; first compound 2.53 µM)	relative viability ([2]; first compound 8 µM)	relative viability (Masitinib + Pictilisib; first compound 0.01 µM)	relative viability (Masitinib + Pictilisib; first compound 0.03162 µM)	relative viability (Masitinib + Pictilisib; first compound 0.1 µM)	relative viability (Masitinib + Pictilisib; first compound 0.3162 µM)	relative viability (Masitinib + Pictilisib; first compound 1 µM)	relative viability (Masitinib + Olaparib; first compound 0.01 µM)	relative viability (Masitinib + Olaparib; first compound 0.03162 µM)	relative viability (Masitinib + Olaparib; first compound 0.1 µM)	relative viability (Masitinib + Olaparib; first compound 0.3162 µM)	relative viability (Masitinib + Olaparib; first compound 1 µM)
NCI-H1666	0.578	0.728	0.684	0.523	0.6	0.976	0.958	0.773	0.81	0.679	0.393	0.382	0.474	0.246	0.346	0.736	0.716	0.724	0.695	0.73
NCI-H1734	0.679	0.712	0.677	0.681	0.614	0.203	0.22	0.22	0.192	0.191	0.441	0.459	0.532	0.412	0.395	0.557	0.564	0.623	0.618	0.6
NCI-H1755	0.734	0.735	0.612	0.642	0.522	0.519	0.46	0.428	0.37	0.486		0.387	0.402	0.482	0.423	0.769	0.832	0.893	0.849	0.755
NCI-H1792	0.401	0.397	0.379	0.317	0.429	0.305	0.407	0.375	0.326	0.351	0.277	0.209	0.288	0.197	0.225	0.528	0.257	0.303	0.377	0.396
NCI-H1793	0.451	0.353	0.348	0.345	0.394	0.182	0.177	0.177	0.202	0.344	0.455	0.318	0.427	0.381	0.338	0.893	0.777	1.04	1.08	0.768
NCI-H1915	0.308	0.29	0.27	0.266	0.27	0.897	0.857	0.833	0.787	0.776		0.97	0.664	0.853	0.908		0.289		0.254	0.238
NCI-H1944	0.345	0.409	0.39	0.362	0.357	0.674	0.771	0.792	0.654	0.72		0.334	0.352	0.317	0.345		0.344		0.364	0.374
NCI-H1975	0.294	0.274	0.335	0.263	0.193	0.252	0.17	0.201	0.249	0.184	0.288	0.305	0.331	0.224	0.289	0.79	0.727	0.78	0.642	0.839
NCI-H1993	0.514	0.517	0.596	0.348	0.461	0.767	0.545	0.546	0.624	0.7	0.859		1.05	0.778	0.825	1.13	0.876	1.19	1.1	1.01
NCI-H2009	0.249	0.271	0.265	0.267	0.278	1.01	0.953	0.905	0.988	1.05	0.641	0.87	0.756	0.923	0.793	0.733	0.546	0.818	0.702	0.635
NCI-H2023	0.592	0.617	0.429	0.375	0.179	0.716	0.706	0.889	0.659	0.427	0.225	0.248	0.286	0.191	0.243	0.63	0.422	0.458	0.427	0.44
NCI-H2085	0.513	0.376	0.428	0.471	0.426	0.381	0.428	0.444	0.383	0.393	0.522	0.455	0.469	0.396	0.595	0.729	0.805	0.798	0.815	0.728
NCI-H2087	0.178	0.195	0.246	0.164	0.181	0.17	0.183	0.137	0.21	0.126	0.894	0.859	0.837	0.93	0.805	0.73	0.583	0.63	0.523	0.7
NCI-H2126	0.509	0.528	0.426	0.476	0.485	0.825	0.855	0.9	0.875	0.865	0.514	0.459	0.459	0.414	0.467	0.916	0.965	1	0.992	0.991
NCI-H2170	0.945	0.935	0.833	0.86	0.668	0.624	0.701	0.775	0.527	0.48	0.32	0.28	0.299	0.271	0.301	0.546	0.698	0.672	0.576	0.559
NCI-H2228	0.418	0.48	0.501	0.44	0.385	0.107	0.159	0.194	0.164	0.17	0.381	0.36	0.398	0.236	0.392	0.756	0.589	0.622	0.548	0.661
